Measured values: patent US11464780B2, “Pyrazolopyrimidine derivative and use thereof” (Simcere Pharmaceutical Co. Ltd., priority 2018, dated 2022)
pIC50: −log10 of the molar value. Structures can show the parent of a compound that is named as a salt.

Tests used:
[1] = test system: human lung cancer LU-01-0414 subcutaneous xenograft tumor; assay: In vivo efficacy, subcutaneous xenograft tumor of human lung cancer LU-01-0414; set-up: species or system BALB/c mouse; settings: LU-01-0414 xenograft, 14th day, PO
Experimental: Experimental object: evaluation of the in vivo efficacy of test drugs such as WX002A on subcutaneous xenograft tumor of human lung cancer LU-01-0414 in BALB/c mouse model.
Drug preparation: The compounds were all prepared into clear solutions with 5% DMSO+10% solutol+85% water as solvent for administration in the PO (intragastric) group.
Tumor measurement: the tumor diameters were measured with a vernier caliper twice a week. The calculation formula of tumor volume is: V=0.5×a×b^2, wherein a and b represent the long diameter and short diameter of the tumor, respectively. The anti-tumor efficacy of the compounds was evaluated by TGI (%). TGI (%) reflects tumor growth inhibition rate.
Statistical analysis: the statistical analysis was based on the relative tumor volume and tumor weight at the end of the experiment using SPSS software. One-way ANOVA was used to analyze the comparison between multiple groups. […] P<0.05 was considered to indicate significant difference.

[2] = In vivo pharmacokinetic test in mice; set-up: species or system male CD-1 mice; settings: PO dose of 10 mL/kg
Experimental: Experimental object: male CD-1 mice aged 7-9 weeks were used as the experimental animals, the LC/MS/MS method was used to determine the drug concentrations in plasma at different time points after single intravenous (IV) and intragastric (PO) administration of the compounds, in vivo pharmacokinetic behaviors of the compounds of the present disclosure in mice were studied, and pharmacokinetic characteristics thereof were evaluated. Drug preparation: The compounds were prepared into clear solutions with 5% DMSO+10% solutol+85% water as solvent for administration in IV (intravenous) group and PO (intragastric). The dose of the compounds: IV dose of 3 mg/kg, and PO dose of […].

[3] = In vivo cassette pharmacokinetic test in mice; set-up: species or system male CD-1 mice; settings: male, CD-1, mouse, in vivo, po, 3 mg/kg, 2 h
Experimental: The dose of the compounds: […] PO dose of 3 mg/kg, and administration volume of 3 mL/kg.

[4] = biological target: T1, TrkA (Homo sapiens, UniProt P04629); assay: Kinase inhibitory activity (33P-ATP filter binding, Reaction Biology Corp.); format: biochemical; settings: read-out: The half maximal inhibitory concentration IC50 on the kinases, TrkA
T1 construct: purchased Reaction Biology Corp. (contract assay)
Experimental: (§1) The mixture was incubated at room temperature for 20 minutes. To the reaction mixture was added a certain concentration of ^33P-ATP to initiate the reaction, and then the mixture was incubated at room temperature for 120 minutes. The radioactivities of the reactants were determined by the method of filter binding. The final kinase activity was expressed as the ratio of the remaining kinase activity in the test sample to the kinase activity in the DMSO control group. The dose-effect curve was fitted by GraphPad software and the IC50 was calculated.

[5] = biological target: T2, TrkC (Homo sapiens, UniProt Q16288); assay: as above; format: biochemical; settings: read-out: The half maximal inhibitory concentration IC50 on the kinases, TrkC
T2 construct: purchased Reaction Biology Corp. (contract assay)
Experimental: as §1

[6] = biological target: T3, ALK (Homo sapiens, UniProt Q9UM73); assay: as above; format: biochemical; settings: read-out: The half maximal inhibitory concentration IC50 on the kinases, ALK
T3 construct: purchased Reaction Biology Corp. (contract assay)
Experimental: The inhibitory activities of the compounds on TrkA, TrkC, ALK, Ros1 and other kinases were determined by Reaction Biology Corp. To reaction buffer (20 mM Hepes (pH 7.5), 10 mM MgCl2, 1 mM EGTA, 0.02% Brij35, 0.02 mg/mL BSA, 0.1 mM Na3VO4, 2 mM DTT, 1% DMSO) were sequentially added a certain concentration of substrate, coenzyme factor, kinase and test compound (10 concentrations, 3-fold serial dilutions, DMSO at a final concentration of […]), and the mixture was mixed evenly. The mixture was incubated at room temperature for 20 minutes. To the reaction mixture was added a certain concentration of ^33P-ATP to initiate the reaction, and then the mixture was incubated at room temperature for 120 minutes. The radioactivities of the reactants were determined by the method of filter binding. The final kinase activity was expressed as the ratio of the remaining kinase activity in the test sample to the kinase activity in the DMSO control group. The dose-effect curve was fitted by GraphPad software and the IC50 was calculated.

[7] = biological target: T4, Ros1 (Homo sapiens, UniProt P08922); assay: as above; format: biochemical; settings: read-out: The half maximal inhibitory concentration IC50 on the kinases, Ros1
T4 construct: purchased Reaction Biology Corp. (contract assay)
Experimental: as §1

[8] = biological target: T5, TrkA-G595R (Homo sapiens, UniProt P04629, G595R); assay: as above; format: biochemical; settings: read-out: The half maximal inhibitory concentration IC50 on the kinases, TrkA-G595R
T5 construct: purchased Reaction Biology Corp. (contract assay)
Experimental: as §1

[9] = biological target: T6, Ba/F3 LMNA-NTRK1-WT stably transfected cell line (Homo sapiens, UniProt P04629); assay: Cell proliferation inhibition (CellTiter-Glo); format: cell-based; settings: 72 hours, read-out: The half maximal inhibitory concentration IC50 against cells, Ba/F3 LMNA-NTRK1-WT
T6 construct: fused on or other part: P02545 (Prelamin-A/C)
Experimental: Adenosine Tri-Phosphate (ATP) is an energy carrier shared by various life activities in nature, and is the smallest unit of energy storage and transfer. The CellTiter-Glo™ cell viability detection kit uses luciferase as the detection substance, and luciferase requires the participation of ATP during the process of luminescence. CellTiter-Glo™ reagent is added to cell culture medium, and the luminescent intensity is measured. The luminescent signal is directly proportional to the amount of ATP in the system, and ATP is positively related to the number of living cells. Therefore, by using the CellTiter-Glo kit to detect ATP content, cell proliferation can be detected. In this assay, the cell line is Ba/F3 LMNA-NTRK1-WT stably transfected cell line, with 5000 cells/well.
IC50 Determination Process:
1. Cell Culture and Inoculation
a) the cells in the logarithmic growth phase were harvested, and counted with a platelet counter. Trypan blue exclusion method was used to detect cell viability to ensure the cell viability was no less than 90%.
b) the cell concentration was adjusted; 90 μL of cell suspension was added respectively into a 96-well plate.
c) the cells in the 96-well plates was cultured under conditions of 37° C., 5% CO2 and 95% humidity overnight.
2. Drug Dilution and Administration
a) 10-fold drug solutions were prepared, the highest concentration was 10 μM, 9 concentrations, 3-fold diluted (refer to Appendix I). 10 μL of each drug solution was added to each well of the 96-well plate seeded with the cells in triplicate.
b) the cells in the 96-well plate added with the drug were cultured under conditions of 37° C., 5% CO2 and 95% humidity for 72 hours, and then CTG (cell proliferation) was performed.
a) CellTiter-Glo™ reagent was thawed, and the cell plate was equilibrated at room temperature for 30 minutes.
b) CellTiter-Glo™ reagent of a same volume was added to each well;
c) the cell plate was shaken on an orbital shaker for 5 minutes to lyse the cells.
d) the cell plate was placed at room temperature for 20 minutes to stabilize the luminescent signal.
e) the luminescent intensity was read.
GraphPad Prism 5.0 software was used to analyze the data, nonlinear S-curve regression was used to fit the data to obtain dose-effect curve, and IC50 value was calculated therefrom.

T1 sequence (P04629 33-796): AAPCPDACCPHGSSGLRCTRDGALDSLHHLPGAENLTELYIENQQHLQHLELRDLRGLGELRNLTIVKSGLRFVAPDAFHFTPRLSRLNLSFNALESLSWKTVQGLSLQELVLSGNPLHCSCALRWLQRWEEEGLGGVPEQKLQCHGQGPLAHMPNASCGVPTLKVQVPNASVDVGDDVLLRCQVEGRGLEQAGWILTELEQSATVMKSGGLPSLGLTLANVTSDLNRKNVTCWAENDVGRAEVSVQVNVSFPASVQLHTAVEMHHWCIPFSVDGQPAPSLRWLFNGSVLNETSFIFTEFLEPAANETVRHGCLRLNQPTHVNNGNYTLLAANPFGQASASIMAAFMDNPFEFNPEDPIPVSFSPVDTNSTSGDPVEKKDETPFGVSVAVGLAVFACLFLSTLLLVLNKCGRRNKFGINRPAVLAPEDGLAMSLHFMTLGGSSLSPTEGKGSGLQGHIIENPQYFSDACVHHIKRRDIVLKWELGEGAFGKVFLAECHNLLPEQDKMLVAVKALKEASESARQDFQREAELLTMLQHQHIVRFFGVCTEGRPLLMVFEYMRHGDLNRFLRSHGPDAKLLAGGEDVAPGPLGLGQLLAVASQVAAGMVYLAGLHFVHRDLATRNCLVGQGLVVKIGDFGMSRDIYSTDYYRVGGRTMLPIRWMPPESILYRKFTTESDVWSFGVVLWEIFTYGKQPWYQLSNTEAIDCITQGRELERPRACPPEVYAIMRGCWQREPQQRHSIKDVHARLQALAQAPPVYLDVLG
T6 sequence (P04629 whole entry, stated change not applied, the tested form may be a part): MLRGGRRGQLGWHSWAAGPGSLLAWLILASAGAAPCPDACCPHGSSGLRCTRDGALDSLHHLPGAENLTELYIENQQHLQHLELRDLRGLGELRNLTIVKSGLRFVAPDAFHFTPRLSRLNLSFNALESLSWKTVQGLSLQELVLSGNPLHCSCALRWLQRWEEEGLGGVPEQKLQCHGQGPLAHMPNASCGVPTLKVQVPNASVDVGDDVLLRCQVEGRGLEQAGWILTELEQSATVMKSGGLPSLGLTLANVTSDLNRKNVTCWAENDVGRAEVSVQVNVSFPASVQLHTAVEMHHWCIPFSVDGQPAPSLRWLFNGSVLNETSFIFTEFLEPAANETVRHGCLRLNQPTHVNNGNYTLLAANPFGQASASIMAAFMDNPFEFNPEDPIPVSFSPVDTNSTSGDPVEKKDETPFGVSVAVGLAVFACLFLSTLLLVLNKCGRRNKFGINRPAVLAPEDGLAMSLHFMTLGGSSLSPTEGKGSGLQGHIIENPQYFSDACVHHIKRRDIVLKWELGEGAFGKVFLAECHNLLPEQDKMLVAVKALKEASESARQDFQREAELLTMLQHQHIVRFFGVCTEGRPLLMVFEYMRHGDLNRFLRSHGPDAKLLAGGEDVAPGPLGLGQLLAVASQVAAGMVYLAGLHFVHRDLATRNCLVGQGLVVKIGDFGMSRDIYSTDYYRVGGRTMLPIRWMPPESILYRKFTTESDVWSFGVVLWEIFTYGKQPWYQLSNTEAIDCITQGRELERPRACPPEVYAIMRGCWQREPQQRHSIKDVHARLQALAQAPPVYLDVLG
T5 sequence (P04629 33-796 G595R): as the sequence (P04629 33-796) above, with G563R counted along it
T2 sequence (Q16288 32-839): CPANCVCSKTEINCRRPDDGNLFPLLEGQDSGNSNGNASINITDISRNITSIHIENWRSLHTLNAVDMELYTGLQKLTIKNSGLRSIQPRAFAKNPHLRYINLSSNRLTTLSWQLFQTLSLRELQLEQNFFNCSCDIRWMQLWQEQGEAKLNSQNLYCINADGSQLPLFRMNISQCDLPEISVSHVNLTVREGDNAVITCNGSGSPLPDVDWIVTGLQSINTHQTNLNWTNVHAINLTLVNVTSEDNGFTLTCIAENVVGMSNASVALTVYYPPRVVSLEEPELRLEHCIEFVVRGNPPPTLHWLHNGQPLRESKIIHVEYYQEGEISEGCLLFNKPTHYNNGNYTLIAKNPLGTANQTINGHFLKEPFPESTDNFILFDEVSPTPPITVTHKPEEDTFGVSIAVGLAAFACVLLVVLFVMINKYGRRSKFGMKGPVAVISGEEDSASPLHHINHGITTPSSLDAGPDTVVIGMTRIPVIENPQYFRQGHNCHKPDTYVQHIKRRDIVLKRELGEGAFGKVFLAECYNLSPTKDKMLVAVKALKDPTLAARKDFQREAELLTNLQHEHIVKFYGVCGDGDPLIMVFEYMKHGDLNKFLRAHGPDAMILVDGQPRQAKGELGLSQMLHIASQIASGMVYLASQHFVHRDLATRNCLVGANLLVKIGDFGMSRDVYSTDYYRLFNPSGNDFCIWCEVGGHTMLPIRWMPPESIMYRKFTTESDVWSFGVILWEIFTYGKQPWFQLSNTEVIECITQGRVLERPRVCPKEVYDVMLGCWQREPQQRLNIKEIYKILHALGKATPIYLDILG
T4 sequence (P08922 28-2347): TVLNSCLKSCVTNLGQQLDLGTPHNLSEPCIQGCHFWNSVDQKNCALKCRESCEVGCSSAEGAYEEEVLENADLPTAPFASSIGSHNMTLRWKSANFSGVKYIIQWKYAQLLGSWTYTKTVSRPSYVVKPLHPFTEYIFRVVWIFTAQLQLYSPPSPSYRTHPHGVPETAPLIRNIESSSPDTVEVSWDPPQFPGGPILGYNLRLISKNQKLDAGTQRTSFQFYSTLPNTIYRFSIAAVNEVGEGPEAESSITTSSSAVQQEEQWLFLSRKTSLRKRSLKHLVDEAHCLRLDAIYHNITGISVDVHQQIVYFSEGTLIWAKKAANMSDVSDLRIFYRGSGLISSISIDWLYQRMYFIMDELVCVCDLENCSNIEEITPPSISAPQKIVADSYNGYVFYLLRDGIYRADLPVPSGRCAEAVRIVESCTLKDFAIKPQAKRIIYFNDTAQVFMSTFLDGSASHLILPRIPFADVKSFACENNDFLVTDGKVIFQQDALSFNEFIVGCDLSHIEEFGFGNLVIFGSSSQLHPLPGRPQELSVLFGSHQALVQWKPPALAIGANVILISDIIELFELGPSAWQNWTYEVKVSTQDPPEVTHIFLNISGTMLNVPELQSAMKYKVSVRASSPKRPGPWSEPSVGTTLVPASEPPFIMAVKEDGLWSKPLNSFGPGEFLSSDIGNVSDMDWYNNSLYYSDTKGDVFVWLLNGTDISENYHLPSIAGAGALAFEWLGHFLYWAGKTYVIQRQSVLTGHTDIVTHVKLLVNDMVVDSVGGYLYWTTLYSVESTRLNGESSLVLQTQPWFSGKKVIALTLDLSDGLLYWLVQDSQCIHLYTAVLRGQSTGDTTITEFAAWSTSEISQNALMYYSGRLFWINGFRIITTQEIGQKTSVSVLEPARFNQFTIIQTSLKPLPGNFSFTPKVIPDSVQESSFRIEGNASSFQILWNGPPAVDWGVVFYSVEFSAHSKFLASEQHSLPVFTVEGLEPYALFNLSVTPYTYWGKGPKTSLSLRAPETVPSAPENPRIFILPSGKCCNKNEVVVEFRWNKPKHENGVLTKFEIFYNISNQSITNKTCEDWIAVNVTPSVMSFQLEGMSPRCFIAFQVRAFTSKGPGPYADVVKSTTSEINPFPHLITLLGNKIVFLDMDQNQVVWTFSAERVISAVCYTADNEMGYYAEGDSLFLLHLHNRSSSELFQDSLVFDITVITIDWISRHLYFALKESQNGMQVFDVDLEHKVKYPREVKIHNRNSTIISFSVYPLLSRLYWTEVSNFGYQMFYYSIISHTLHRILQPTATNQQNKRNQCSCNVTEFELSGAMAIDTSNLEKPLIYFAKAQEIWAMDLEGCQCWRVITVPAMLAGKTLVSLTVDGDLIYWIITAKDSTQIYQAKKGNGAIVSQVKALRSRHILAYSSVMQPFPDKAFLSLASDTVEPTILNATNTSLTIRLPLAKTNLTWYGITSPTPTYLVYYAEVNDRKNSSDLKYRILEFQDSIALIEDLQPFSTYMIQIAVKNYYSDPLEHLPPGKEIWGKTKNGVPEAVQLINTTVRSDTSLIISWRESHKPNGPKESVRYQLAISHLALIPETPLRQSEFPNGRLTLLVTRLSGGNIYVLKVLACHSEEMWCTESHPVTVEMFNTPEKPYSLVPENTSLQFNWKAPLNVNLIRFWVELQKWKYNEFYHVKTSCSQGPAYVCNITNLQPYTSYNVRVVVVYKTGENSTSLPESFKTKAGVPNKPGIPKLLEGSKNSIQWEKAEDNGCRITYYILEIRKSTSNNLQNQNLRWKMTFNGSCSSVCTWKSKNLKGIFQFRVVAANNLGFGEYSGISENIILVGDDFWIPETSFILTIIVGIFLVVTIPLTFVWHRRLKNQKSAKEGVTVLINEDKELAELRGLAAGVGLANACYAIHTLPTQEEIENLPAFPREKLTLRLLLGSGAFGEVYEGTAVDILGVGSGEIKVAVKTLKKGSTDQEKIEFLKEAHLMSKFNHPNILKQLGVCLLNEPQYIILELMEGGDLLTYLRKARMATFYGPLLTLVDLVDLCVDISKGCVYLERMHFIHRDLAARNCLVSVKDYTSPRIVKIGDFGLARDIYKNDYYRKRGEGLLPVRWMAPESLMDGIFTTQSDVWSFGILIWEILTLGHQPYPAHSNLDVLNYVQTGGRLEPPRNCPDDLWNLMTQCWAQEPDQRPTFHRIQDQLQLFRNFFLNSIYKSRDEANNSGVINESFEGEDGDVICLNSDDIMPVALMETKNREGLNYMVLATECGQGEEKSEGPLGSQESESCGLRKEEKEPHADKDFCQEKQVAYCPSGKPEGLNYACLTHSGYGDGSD

Compound: C[C@@H](Oc1cc(-c2cnn(C3CCNCC3)c2)cnc1N)c1c(Cl)ccc(F)c1Cl [Crizotinib, crizotinib, reference compound]
- T/C ([1]; 30 mg/kg QD): 10.32%
- TGI ([1]; 30 mg/kg QD): 117.67%
- T/C ([1]; 50 mg/kg QD): 4.89%
- TGI ([1]; 50 mg/kg QD): 124.09%

Compound: C[C@@H]1CCc2ncc(F)cc2[C@H]2CCCN2c2ccn3ncc(c3n2)C(=O)N1 [LOXO-195, reference compound]
- Area under the curve AUC0-last [2]: 27.344 µM·h
- Time of peak concentration Tmax [2]: 22.8 min
- Cmax ([2]; read-out: Peak concentration Cmax): 12.7 µM

Compound: CN1CCN(c2ccc(C(=O)Nc3n[nH]c4ccc(Cc5cc(F)cc(F)c5)cc34)c(NC3CCOCC3)c2)CC1 [RXDX-101, Entrectinib, reference compound]
- drug concentration in brain at 2 h Brain@2 h [3]: 30 nmol/kg

Compound: CC1CCc2ncc(F)cc2C2CCON2c2ccn3ncc(c3n2)C(=O)N1 (stereo not drawn) [WX001 hydrochloride]
- pIC50 [4]: 6.75

Compound: O=C1NC2(CC2)COc2ncc(F)cc2[C@@H]2CCON2c2ccn3ncc1c3n2 [WX002B]
- pIC50 [4]: < 6.00

Compound: O=C1NC2(CC2)COc2ncc(F)cc2C2CCON2c2ccn3ncc1c3n2 (stereo not drawn) [WX002]
- pIC50 [4]: 8.36

Compound: O=C1NC2(CC2)COc2ccc(F)cc2[C@@H]2CCON2c2ccn3ncc1c3n2 [WX003B]
- pIC50 [4]: < 6.00

Compound: C[C@@H]1COc2ncc(F)cc2[C@@H]2CCON2c2ccn3ncc(c3n2)C(=O)N1 [WX004B]
- pIC50 [5]: 6.98
- pIC50 [4]: < 6.00

Compound: C[C@H]1CNC(=O)c2cnn3ccc(nc23)N2OCC[C@H]2c2cc(F)cnc2O1 [WX005A]
- pIC50 [6]: < 6.00
- pIC50 [5]: 6.72
- pIC50 [4]: < 6.00
- pIC50 [7]: 6.27

Compound: O=C1NC2(COC2)COc2ncc(F)cc2[C@@H]2CCON2c2ccn3ncc1c3n2 [WX006B]
- pIC50 [8]: < 6.00
- pIC50 [4]: < 6.00

Compound: O=C1N[C@@H]2CCC[C@@H]2Oc2ncc(F)cc2[C@@H]2CCON2c2ccn3ncc1c3n2 [WX007B]
- pIC50 [8]: < 6.00
- pIC50 [4]: 6.23

Compound: O=C1N[C@@H]2COC[C@@H]2Oc2ncc(F)cc2[C@@H]2CCON2c2ccn3ncc1c3n2 [WX008B]
- pIC50 [8]: < 6.00
- pIC50 [4]: < 6.00

Compound: CN1C[C@@H]2Oc3ncc(F)cc3[C@H]3CCON3c3ccn4ncc(c4n3)C(=O)N[C@@H]2C1 [WX009A]
- GI50 [9]: 76.8 nM
- pIC50 [4]: 7.07

Compound: CN1C[C@@H]2Oc3ncc(F)cc3[C@@H]3CCON3c3ccn4ncc(c4n3)C(=O)N[C@@H]2C1 [WX009B]
- pIC50 [4]: < 6.00

Compound: O=C1N[C@@H]2COCC[C@@H]2Oc2ncc(F)cc2[C@@H]2CCON2c2ccn3ncc1c3n2 [WX010A]
- pIC50 [4]: < 6.00

Compound: CN1CC[C@H]2NC(=O)c3cnn4ccc(nc34)N3OCC[C@@H]3c3cc(F)cnc3O[C@H]2C1 [WX011A]
- GI50 [9]: 39.7 nM
- pIC50 [4]: 7.47

Compound: CN1CC[C@H]2NC(=O)c3cnn4ccc(nc34)N3OCC[C@H]3c3cc(F)cnc3O[C@H]2C1 [WX011B]
- pIC50 [4]: 6.57

Compound: O=C1N[C@@H]2CNC[C@@H]2Oc2ncc(F)cc2[C@@H]2CCON2c2ccn3ncc1c3n2 [WX012A]
- pIC50 [4]: < 6.00

Compound: O=C1N[C@@H]2CNC[C@@H]2Oc2ncc(F)cc2[C@H]2CCON2c2ccn3ncc1c3n2 [WX012B]
- GI50 [9]: 259 nM
- pIC50 [4]: 6.84

Compound: O=C1N[C@@H]2CCNC[C@@H]2Oc2ncc(F)cc2[C@@H]2CCON2c2ccn3ncc1c3n2 [WX013A]
- pIC50 [4]: < 6.00

Compound: O=C1N[C@@H]2CCNC[C@@H]2Oc2ncc(F)cc2[C@H]2CCON2c2ccn3ncc1c3n2 [WX013B]
- GI50 [9]: 216 nM
- pIC50 [4]: 7.24

Compound: CC(=O)N1CC[C@H]2NC(=O)c3cnn4ccc(nc34)N3OCC[C@H]3c3cc(F)cnc3O[C@H]2C1 [WX014A]
- pIC50 [4]: 5.91

Compound: CC(=O)N1CC[C@H]2NC(=O)c3cnn4ccc(nc34)N3OCC[C@@H]3c3cc(F)cnc3O[C@H]2C1 [WX014B]
- GI50 [9]: 80.4 nM
- pIC50 [4]: 7.89

Compound: CCN1C[C@@H]2Oc3ncc(F)cc3[C@H]3CCON3c3ccn4ncc(c4n3)C(=O)N[C@@H]2C1 [WX015A]
- GI50 [9]: 65.1 nM
- pIC50 [4]: 6.74

Compound: CCN1C[C@@H]2Oc3ncc(F)cc3[C@@H]3CCON3c3ccn4ncc(c4n3)C(=O)N[C@@H]2C1 [WX015B]
- pIC50 [4]: < 6.00

Compound: CCN1CC[C@H]2NC(=O)c3cnn4ccc(nc34)N3OCC[C@@H]3c3cc(F)cnc3O[C@H]2C1 [WX016A]
- GI50 [9]: 65.8 nM
- pIC50 [4]: 7.48

Compound: CCN1CC[C@H]2NC(=O)c3cnn4ccc(nc34)N3OCC[C@H]3c3cc(F)cnc3O[C@H]2C1 [WX016B]
- pIC50 [4]: 6.66

Compound: C[C@@H]1COc2ccc(F)cc2[C@@H]2CCON2c2ccn3ncc(c3n2)C(=O)N1 [WX017B]
- pIC50 [4]: < 6.00

Compound: CC1(C)COc2ncc(F)cc2[C@H]2CCON2c2ccn3ncc(c3n2)C(=O)N1 [WX018]
- pIC50 [4]: < 6.00
